Data: article PMC3289994 (Archives of Biochemistry and Biophysics, 2012)

Tests used:
[1] = target: human serum albumin (HSA) (Homo sapiens, UniProt P02768); experiment: SPR equilibrium binding of carotenoids to immobilized HSA
β-lactoglobulin (LG) = target: T1, β-lactoglobulin (LG) (Bos taurus, UniProt P02754); experiment: SPR equilibrium binding of carotenoids to immobilized LG
T1 sequence (P02754 17-178): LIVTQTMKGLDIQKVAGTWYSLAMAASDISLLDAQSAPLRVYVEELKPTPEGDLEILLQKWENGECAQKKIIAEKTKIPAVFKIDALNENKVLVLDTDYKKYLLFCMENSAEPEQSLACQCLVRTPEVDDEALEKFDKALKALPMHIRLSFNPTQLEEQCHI

[2] = target: T2, StARD1 protein binding domain (residues 63–285) (Homo sapiens, UniProt P49675); experiment: FastStep SPR equilibrium binding of carotenoids to immobilized StARD1
T2 sequence (P49675 63-285): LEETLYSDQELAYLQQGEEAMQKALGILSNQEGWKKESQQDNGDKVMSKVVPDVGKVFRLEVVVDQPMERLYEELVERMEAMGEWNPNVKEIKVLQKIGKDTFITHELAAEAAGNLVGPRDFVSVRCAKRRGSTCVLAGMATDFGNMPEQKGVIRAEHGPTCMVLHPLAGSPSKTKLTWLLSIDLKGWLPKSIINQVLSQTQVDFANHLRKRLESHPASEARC

Sequence of human serum albumin (HSA) (P02768 25-609): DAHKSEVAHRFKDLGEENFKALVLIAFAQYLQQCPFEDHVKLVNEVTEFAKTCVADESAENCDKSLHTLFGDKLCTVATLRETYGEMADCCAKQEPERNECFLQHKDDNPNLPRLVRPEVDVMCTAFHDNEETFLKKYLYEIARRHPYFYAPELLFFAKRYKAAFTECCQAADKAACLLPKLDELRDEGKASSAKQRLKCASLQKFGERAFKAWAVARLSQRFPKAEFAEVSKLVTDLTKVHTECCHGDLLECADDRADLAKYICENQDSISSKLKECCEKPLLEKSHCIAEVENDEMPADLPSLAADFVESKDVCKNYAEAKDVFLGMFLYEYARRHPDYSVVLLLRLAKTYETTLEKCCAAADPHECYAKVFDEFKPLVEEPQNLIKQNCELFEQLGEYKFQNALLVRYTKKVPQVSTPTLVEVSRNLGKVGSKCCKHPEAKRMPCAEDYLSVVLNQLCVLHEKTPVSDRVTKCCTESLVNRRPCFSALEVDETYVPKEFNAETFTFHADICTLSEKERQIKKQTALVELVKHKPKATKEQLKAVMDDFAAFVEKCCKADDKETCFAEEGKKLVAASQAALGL

| Kd [1] [nM] | Kd (β-lactoglobulin (LG)) [nM] | Kd [2] [nM] | SMILES |
| --- | --- | --- | --- |
| 1160 ± 40 | 2480 ± 80 | 1150 ± 60 | CC1=C[C@H](O)CC(C)(C)[C@H]1/C=C/C(C)=C/C=C/C(C)=C/C=C/C=C(C)/C=C/C=C(C)/C=C/C1=C(C)C[C@@H](O)CC1(C)C [Lutein, (3R, 3′R, 6′R)-lutein] |
| 1530 ± 20 | 2400 ± 50 | 1790 ± 80 | CC1=C(/C=C/C(C)=C/C=C/C(C)=C/C=C/C=C(C)/C=C/C=C(C)/C=C/C2=C(C)CCCC2(C)C)C(C)(C)CCC1 [β-Carotene] |
| 1560 ± 30 | 1900 ± 50 | 1960 ± 90 | CC1=C(/C=C/C(C)=C/C=C/C(C)=C/C=C/C=C(C)/C=C/C=C(C)/C=C/C2=C(C)C(=O)[C@@H](O)CC2(C)C)C(C)(C)C[C@H](O)C1=O [Astaxanthin, (3S, 3′S)-astaxanthin] |
| 1600 ± 50 | 2300 ± 20 | 1320 ± 90 | CC1=C(/C=C/C(C)=C/C=C/C(C)=C/C=C/C=C(C)/C=C/C=C(C)/C=C/C2=C(C)C[C@@H](O)CC2(C)C)C(C)(C)C[C@H](O)C1 [Zeaxanthin, (3R, 3′R)-zeaxanthin] |
